The values below come from patent publication US9326985B2, “Heteroaryl pyridone and aza-pyridone amide compounds” (Genentech, Inc., priority 2013, dated 2016).

Molecules are shown by their SMILES.

Assay [1] concerns the target T1, full length human wildtype Btk (Homo sapiens, UniProt Q06187).
T1 construct: V5 (C); 6xHis (C); made in house; host or cells: Sf9 insect cells (baculovirus, pFastBac)
Briefly: Biochemical Btk Assay (BTK LC3K). To be noted: Table 2. How it is done:
A generalized procedure for a standard biochemical Btk, Kinase Assay that can be used to test Formula I compounds is as follows. A master mix minus Btk enzyme is prepared containing 1× Cell Signaling kinase buffer (25 mM Tris-HCl, pH 7.5, 5 mM beta-glycerophosphate, 2 mM dithiothreitol, 0.1 mM Na3VO4, 10 mM MgCl2), 0.5 μM Promega PTK Biotinylated peptide substrate 2, and 0.01% BSA. A master mix plus Btk enzyme is prepared containing 1× Cell Signaling kinase buffer, 0.5 μM (micromolar) PTK Biotinylated peptide substrate 2, 0.01% BSA, and 100 ng/well (0.06 mU/well) Btk enzyme. Btk enzyme is prepared as follows: full length human wildtype Btk (accession number NM-000061) with a C-terminal V5 and 6×His tag was subcloned into pFastBac® vector (Invitrogen/Life Technologies) for making baculovirus carrying this epitope-tagged Btk. […] Passage 3 virus is used to infect Sf9 cells to overexpress the recombinant Btk protein. The Btk protein is then purified to homogeneity using Ni-NTA column. […] A solution of 200 μM ATP is prepared in water and adjusted to pH 7.4 with 1N NaOH. A quantity of 1.25 μL (microliter) of compounds in 5% DMSO is transferred to a 96-well ½ area Costar polystyrene plate. Compounds are tested singly and with an 11-point dose-responsive curve (starting concentration is 10 μM; 1:2 dilution). A quantity of 18.75 μL of master mix minus enzyme (as a negative control) and master mix plus enzyme is transferred to appropriate wells in 96-well ½ area costar polystyrene plate. 5 μL of 200 μM ATP is added to that mixture in the 96-well ½ area Costar polystyrene plate for final ATP concentration of 40 μM. The reaction is allowed to incubate for 1 hour at room temperature. The reaction is stopped with Perkin Elmer 1× detection buffer containing 30 mM EDTA, 20 nM SA-APC, and 1 nM PT66 Ab. […] IC50 values are subsequently calculated. Alternatively, the Lanthascreen assay can be used to evaluate Btk activity through quantification of its phosphorylated peptide product. The FRET (Fluorescence Resonance Energy Transfer) that occurs between the fluorescein on the peptide product and the terbium on the detection antibody decreases with the addition of inhibitors of Btk that reduce the phosphorylation of the peptide. In a final reaction volume of 25 uL, Btk (h) (0.1 ng/25 ul reaction) is incubated with 50 mM Hepes pH 7.5, 10 mM MgCl2, 2 mM MnCl2, 2 mM DTT, 0.2 mM NaVO4, 0.01% BSA, and 0.4 uM fluorescein poly-GAT. […] After incubation for 60 minutes at room temperature, the reaction is stopped by the addition of a final concentration of 2 nM Tb-PY20 detection antibody in 60 mM EDTA for 30 minutes at room temperature.

In assay [2] the test system is CD69 by B lymphocytes in human whole blood activated with goat F(ab')2 anti-human IgM. The experiment in a line: CD69 Whole Blood Assay (CD69 Hu Blood FACS). Format: cell-based. To be noted: Lymphocyte, Table 2, anti-IgM stimulation, CD69 positive of CD20 positive cells. A digest of the protocol: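 Heparinized human whole blood from healthy drug-free non-smokers preincubated 30 min at 37 °C with ten-point 3-fold compound dilutions, then stimulated with goat F(ab′)2 anti-human IgM (50 μg/ml final) for 20 h. CD69 on B cells read by flow cytometry as mean fluorescence intensity.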

T1 sequence (Q06187 whole entry): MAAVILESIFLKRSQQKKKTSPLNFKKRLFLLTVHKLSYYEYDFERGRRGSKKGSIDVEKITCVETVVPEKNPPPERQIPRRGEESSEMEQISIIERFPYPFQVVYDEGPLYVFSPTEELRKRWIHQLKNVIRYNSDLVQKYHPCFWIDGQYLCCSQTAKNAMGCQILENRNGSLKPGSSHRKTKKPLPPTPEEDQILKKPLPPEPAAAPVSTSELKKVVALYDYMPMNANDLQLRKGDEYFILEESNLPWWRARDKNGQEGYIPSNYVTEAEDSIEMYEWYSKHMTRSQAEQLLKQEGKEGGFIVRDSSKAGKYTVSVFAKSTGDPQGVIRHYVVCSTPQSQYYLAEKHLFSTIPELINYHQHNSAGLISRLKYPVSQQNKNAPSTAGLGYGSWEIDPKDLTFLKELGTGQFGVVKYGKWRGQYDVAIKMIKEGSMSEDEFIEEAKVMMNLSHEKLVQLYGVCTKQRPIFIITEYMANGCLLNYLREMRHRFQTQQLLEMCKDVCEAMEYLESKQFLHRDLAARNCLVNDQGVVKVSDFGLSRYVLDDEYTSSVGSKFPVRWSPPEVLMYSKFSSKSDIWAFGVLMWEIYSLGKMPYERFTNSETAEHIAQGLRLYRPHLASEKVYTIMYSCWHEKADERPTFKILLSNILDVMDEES

`Cn1cc(-c2ccnc(N3CCc4cc(OC(F)F)cc(F)c4C3=O)c2CO)cc(NC(=O)C2CC2)c1=O` [Compound 144, N-[5-[2-[6-(difluoromethoxy)-8-fluoro-1-oxo-3,4-dihydroisoquinolin-2-yl]-3-(hydroxymethyl)-4-pyridyl]-1-methyl-2-oxo-3-pyridyl]cyclopropanecarboxamide]: the Ki in assay [1] was 234 nM. This molecule displayed an IC50 in assay [2] of over 5400 nM.
For `Cn1cc(-c2ccnc(N3CCc4cc(OC(F)F)cc(F)c4C3=O)c2CO)cc(NC(=O)[C@@H]2C[C@@H]2F)c1=O` [Compound 151, (1S,2S)—N-[5-[2-[6-(difluoromethoxy)-8-fluoro-1-oxo-3,4-dihydroisoquinolin-2-yl]-3-(hydroxymethyl)-4-pyridyl]-1-methyl-2-oxo-3-pyridyl]-2-fluoro-cyclopropanecarboxamide], in that order: 66 nM and over 5300 nM.
For `COCC(=O)Nc1cc(-c2ccnc(-n3ncc4cc(C(C)(C)C)cc(F)c4c3=O)c2CO)cn(C)c1=O` [Compound 156, N-[5-[2-(6-tert-butyl-8-fluoro-1-oxo-phthalazin-2-yl)-3-(hydroxymethyl)-4-pyridyl]-1-methyl-2-oxo-3-pyridyl]-2-methoxy-acetamide], in that order: 21 nM and over 4500 nM.
`Cn1cc(-c2ccnc(N3CCc4cc(OC(F)(F)F)ccc4C3=O)c2CO)cc(NC(=O)C2CC2)c1=O` [Compound 158, N-[5-[3-(hydroxymethyl)-2-[1-oxo-6-(trifluoromethoxy)-3,4-dihydroisoquinolin-2-yl]-4-pyridyl]-1-methyl-2-oxo-3-pyridyl]cyclopropanecarboxamide] gave a Ki in assay [1] of 262 nM. This molecule also came in with an IC50 in assay [2] of over 4400 nM.
For `CCNC(=O)Nc1cc(-c2ccnc(N3CCn4c(cc5c4CC(C)(C)C5)C3=O)c2CO)cn(C)c1=O` [Compound 159, 1-[5-[2-(7,7-dimethyl-4-oxo-1,2,6,8-tetrahydrocyclopenta[3,4]pyrrolo[3,5-b]pyrazin-3-yl)-3-(hydroxymethyl)-4-pyridyl]-1-methyl-2-oxo-3-pyridyl]-3-ethyl-urea], in that order: 1.6 nM and 133 nM.
For `Cn1cc(-c2ccnc(-c3nc4ccc(C(C)(C)C)cc4n3C)c2CO)cc(NC(=O)C2CC2)c1=O` [Compound 160, N-[5-[2-(6-tert-butyl-1-methyl-benzimidazol-2-yl)-3-(hydroxymethyl)-4-pyridyl]-1-methyl-2-oxo-3-pyridyl]cyclopropanecarboxamide], in that order: 25.7 nM and over 3500 nM.
For `Cn1cc(-c2ccnc(-c3nc4cc(C(C)(C)C)ccc4n3C)c2CO)cc(NC(=O)C2CC2)c1=O` [Compound 164, N-[5-[2-(5-tert-butyl-1-methyl-benzimidazol-2-yl)-3-(hydroxymethyl)-4-pyridyl]-1-methyl-2-oxo-3-pyridyl]cyclopropanecarboxamide], in that order: over 500 nM and over 10600 nM.
On to `Cn1cc(-c2cc(F)cc(N3CCc4c(cc5n4CCCC5)C3=O)c2CO)cc(NC(=O)[C@@H]2C[C@@H]2F)c1=O` [Compound 167, (1S,2S)-2-fluoro-N-[5-[5-fluoro-2-(hydroxymethyl)-3-(1-oxo-3,4,6,7,8,9-hexahydropyrido[3,4-b]indolizin-2-yl)phenyl]-1-methyl-2-oxo-3-pyridyl]cyclopropanecarboxamide], for which the Ki in assay [1] was determined as 2.4 nM. The IC50 in assay [2] was 245 nM.
For `Cn1cc(-c2cc(F)cc(N3CCc4c(cc5n4CC(C)(C)C5)C3=O)c2CO)cc(NC(=O)[C@@H]2C[C@@H]2F)c1=O` [Compound 168], in that order: 1 nM and 157 nM.
For `Cn1cc(-c2cc(F)cc(N3CCn4c(cc5c4CC(C)(C)C5)C3=O)c2CO)cc(NC(=O)[C@@H]2C[C@@H]2F)c1=O` [Compound 172, (1S,2S)—N-[5-[3-(7,7-dimethyl-4-oxo-1,2,6,8-tetrahydrocyclopenta[3,4]pyrrole[3,5-b]pyrazin-3-yl)-5-fluoro-2-(hydroxymethyl)phenyl]-1-methyl-2-oxo-3-pyridyl]-2-fluoro-cyclopropanecarboxamide], in that order: 0.8 nM and 17 nM.
For `Cn1cc(-c2cc(F)cc(N3CCn4c(cc5c4CC(C)(C)C5)C3=O)c2CO)cc(NC(=O)[C@H]2C[C@H]2F)c1=O` [Compound 176, (1R,2R)—N-[5-[3-(7,7-dimethyl-4-oxo-1,2,6,8-tetrahydrocyclopenta[3,4]pyrrole[3,5-b]pyrazin-3-yl)-5-fluoro-2-(hydroxymethyl)phenyl]-1-methyl-2-oxo-3-pyridyl]-2-fluoro-cyclopropanecarboxamide], the affinity in assay [1], expressed as Ki, was 2.1 nM. Further, 32.7 nM corresponded to half-maximal inhibition in assay [2] (IC50).
